Test results from US6774131B1, “Remedies for endothelin-induced diseases” (Yamanouchi Pharmaceutical Co., Ltd., priority 2000, dated 2004).
pEC50, pIC50, pKi: −log10 of the molar value.

How the values were obtained:
[1] = test system: mouse formalin-induced pain model; assay: ET-1-induced enhancement of pain responses in mouse formalin-induced pain model; assay type: in vivo
Experimental: Suppressive effects of Compound 1 to the enhancement of pain responses induced by ET-1 in mouse formalin-induced pain model
Male ICR mice (age of 5 weeks; Nippon SLC) were used in these experiments.
The mice were placed in a cage for observation, to acclimate the mice to the environment for 5 minutes or longer; then, physiological saline of 20 μl was subcutaneously injected to the mouse left hind paws, while 0.7% formalin-containing physiological saline of 20 μl was subcutaneously injected to the mouse right hind paws. The duration of licking and biting reactions emerging immediately thereafter was counted every 5 minutes, for 40 minutes. After the termination of the counting, both the ankles were amputated and weighed. The reaction time immediately after formalin injection to 5 minutes later was defined as first phase; and the 30 minutes reaction time from 10 minutes after injection until 40 minutes later was defined in total as second phase, which were used as the indices of pain. Additionally, the edema calculated on the basis of the right foot weight minus the left foot weight (in mg) was used as an index of inflammatory reaction. Additionally, in all cases the licking reaction time was counted between 10:00 and 18:00.
0.7% formalin-containing physiological saline containing ET-1 at doses of 3, 10 and 30 pmol/paw was subcutaneously injected in the right hind paws to examine the action of ET-1 to enhance formalin-induced pain and edema.
Compound 1 (0.3 to 3 mg/kg) was orally administered at a dose of 1 ml/100 g. Sixty minutes after oral administration, 0.7% formalin-containing physiological saline containing ET-1 (10 pmol/paw) was subcutaneously injected in the right hind paws, to examine the effect of the Compound 1 on the ET-1-induced enhancements of formalin-induced pain and edema.
The results are shown in the form of mean±standard error. The significant difference between two groups was calculated the p-value by Students unpaired t-test. The significant difference between groups was analyzed by one-way analysis of variance, to calculate the p-values by the Dunnett's multiple range test. The p-value below 5% was defined as statistically significant.

[2] = test system: MC3T3-E1, mouse osteoblast-like cells; assay: ET-1-induced DNA synthesis ([3H]-thymidine incorporation) in MC3T3-E1; assay type: cell-based
Experimental: MC3T3-E1, mouse osteoblast-like cells, was used in these experiments (Journal of Cell Biology,96(1),191-198,1983).
As DNA synthesis level, the incorporation of [^3H]-labeled thymidine was assayed. The cells were seeded at a density of 1.5×10^4 cells/well in a 96-well plate using 0.2% FCS culture medium and cultured for 2 days. Subsequently, vehicle or ET-1 was added to the plate and cultured for 24 hours. Continuously, [^3H-methyl]-thymidine was added at 0.5 μCi/well to the culture and pulse-labeling performed for 6 hours. Continuously, SDS solution to a final concentration of 0.2% was added for solubilization of the cell, and after solubilization the radioactivity of [^3H-methyl]-thymidine used for DNA synthesis was counted with a liquid scintillation counter. As a control, the count of a culture to which the vehicle was added was defined 100%, thus the percentage increase of DNA synthesis was calculated. […]
The results are shown in the form of mean±standard error. The significant difference between groups was analyzed by one-way analysis of variance, to calculate the p-values by the Dunnett's multiple range test. […] At each experiment, the EC50 value of ET-1 and the IC50 value of the Compound 1 were calculated by the Logistic regression analysis.

[3] = test system: prostate cancer patients; assay: Clinical study in prostate cancer patients; assay type: in vivo, human
Experimental: A clinical study was carried out under the following conditions using the patients suffering from prostate cancer.
Subjects: eighteen patients of at least 45 years of age with prostate cancer(stage D2) who are hormone-refractory or have relapsed after anti-androgen therapy.
Strength: 2,10 and 40 mg tablets
Dosage: 2,4,10,20,60,120and 240 mg/day-dose frequency was once daily ot twice daily
Duration of treatment: four weeks (28 days)
Parameters for evalution: Evaluations and measurements were made for the following items before and after the administration.
(1) Prostate specific antigen (PSA)
(2) Born metabolism markers (bone alkaline phosphatase or ratio of deoxypyridinoline/creatinine)
(3) Bone pain (change of visual analogue scale(VAS)/use of analgesics)

[4] = biological target: T1, human ETA receptor (Homo sapiens, UniProt P25101); conditions: Compound 1: WO97/22595; ABT-627: J.Pharmacol.Exp.Ther.,276,473-481,1996; read-out: affinity to human ETA receptor; cited from earlier work
T1 sequence (P25101 21-427): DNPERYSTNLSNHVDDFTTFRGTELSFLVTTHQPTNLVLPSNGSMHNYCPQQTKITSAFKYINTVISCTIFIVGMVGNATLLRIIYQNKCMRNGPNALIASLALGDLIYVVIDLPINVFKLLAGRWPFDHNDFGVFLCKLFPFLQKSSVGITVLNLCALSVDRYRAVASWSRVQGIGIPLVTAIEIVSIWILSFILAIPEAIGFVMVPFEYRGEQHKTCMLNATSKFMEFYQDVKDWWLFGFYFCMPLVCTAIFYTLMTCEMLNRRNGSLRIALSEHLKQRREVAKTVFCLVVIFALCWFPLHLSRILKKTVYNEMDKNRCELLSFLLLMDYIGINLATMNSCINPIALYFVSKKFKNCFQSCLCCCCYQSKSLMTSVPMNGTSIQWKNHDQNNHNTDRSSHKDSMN

[5] = 0.3, 1 and 3 mg/kg p.o., 60 min before ET-1 10 pmol/paw
[6] = 2-240 mg/day, four weeks, eighteen patients

Compound	ET-1-induced enhancement of formalin-induced edema ([1]; ET-1 3, 10 and 30 pmol/paw with 0.7% formalin s.c. in hind paw)	ET-1-induced enhancement of formalin-induced pain, first phase ([1]; ET-1 3, 10 and 30 pmol/paw with 0.7% formalin s.c. in hind paw, 0-5 min)	ET-1-induced enhancement of formalin-induced pain, second phase ([1]; ET-1 3, 10 and 30 pmol/paw with 0.7% formalin s.c. in hind paw, 10-40 min)	pEC50 ([2]; ET-1 10^−13 to 10^−6 M, read-out: EC50 of increase of [3H]-thymidine incorporation (DNA synthesis))	suppression of ET-1-induced enhancement of formalin-induced edema [1, 5]	suppression of ET-1-induced enhancement of formalin-induced pain, first phase [1, 5]	suppression of ET-1-induced enhancement of formalin-induced pain, second phase [1, 5]	pIC50 ([2]; ET-1 10^−10 M, read-out: IC50 of ET-1-induced increase in [3H]-thymidine incorporation)	effective dose relative to the minimum effective dose of ABT-627 ([3]; 2 mg vs 10 mg)	patients with decreased bone specific alkaline phosphatase [3, 6]	patients with improved pain score VAS [3, 6]	patients with improved prostate cancer marker PSA [3, 6]	patients with improved ratio of deoxypyridinoline/creatinine [3, 6]	patients with reduced analgesics [3, 6]	patients with stabilized PSA [3, 6]	dose from which effective ([3]; Test Example 5, prostate cancer patients)	dose from which effective in improving each observed item ([3]; oral tablets, four weeks)	pKi [4]
ET-1: endothelin; induces pain in humans and experimental animals; used as stimulus of pain, Ca2+ increase and cell growth [reference compound]	significantly enhanced	significantly enhanced	significantly enhanced	11.01														
COc1ccccc1Oc1c(NS(=O)(=O)C=Cc2ccccc2)nc(-c2ncccn2)nc1OC.[K] [Compound 1, N-[6-methoxy-5-(2-methoxyphenoxy)-2-(2-pyrimidinyl)-4-pyrimidinyl]-2-phenylethenesulfoneamide•potassium salt]					significantly suppressed	significantly suppressed	significantly suppressed	7.94	⅕	eleven (out of eighteen)	nine (out of eighteen)	ten	fourteen (out of eighteen)	four (out of eighteen)	two	≥ 2 mg	≥ 2 mg/day	9.16
